Here are results for three compounds from ChEMBL document CHEMBL5380793, “Structure-Activity Relationship of Novel Pyrimidine Derivatives with Potent Inhibitory Activities against Mycobacterium tuberculosis” (J Med Chem, 2023).

Values after ≈ are worked out from the molar mass of the structure shown.

Data set [1] can be described thus: Toxicity in BALB/c mouse assessed as reduction in LDH level at 800 mg/kg, po measured at 14 days. Format: organism-based. The conditions noted are these: in vivo, 336 h, time 14 day.
The test system of data set [2] is Mycobacterium tuberculosis. Nature of the data set: Antitubercular activity against autoluminescent Mycobacterium tuberculosis H37Ra infected in BALB/c mouse assessed as reduction in relative light unit at 300 mg/kg, po administered once daily by oral gavage for 5 days and measured every 2 days by luminometer based analysis. In kind it is functional. Particulars: time 5 day.

The nature of data set [3]: Cytotoxicity against human HepG2 cells assessed as inhibition of cell growth incubated for 48 hrs by MTT assay. Format: toxicity, cell-based.
The nature of data set [4]: Toxicity in BALB/c mouse assessed as increase in uric acid level at 800 mg/kg, po measured at 14 days. In kind it is organism-based. The conditions noted are these: in vivo, 336 h, time 14 day.
The nature of data set [5]: Half life in Sprague-Dawley rat at 5 mg/kg, iv measured for 24 hrs by LC-MS analysis. Format: ADME, organism-based. Particulars: in vivo.
Data set [6] in a line: Oral bioavailability in Sprague-Dawley rat at 15 mg/kg measured for 24 hrs by LC-MS analysis. In kind it is ADME, organism-based. The conditions noted are these: in vivo.
Data set [7] is described as follows: Toxicity in BALB/c mouse assessed as increase in AST level at 800 mg/kg, po measured at 14 days. Format: organism-based. Particulars: in vivo, 336 h, time 14 day.
The subject of another data set is Staphylococcus aureus. Description: Antibacterial activity against methicillin-resistant Staphylococcus aureus assessed as inhibition of bacterial growth. In kind it is functional.
Data set [8] addresses T1, Serine/threonine-protein kinase PknB (Mycobacterium tuberculosis) (UniProt P9WI81).
T1 sequence (whole entry): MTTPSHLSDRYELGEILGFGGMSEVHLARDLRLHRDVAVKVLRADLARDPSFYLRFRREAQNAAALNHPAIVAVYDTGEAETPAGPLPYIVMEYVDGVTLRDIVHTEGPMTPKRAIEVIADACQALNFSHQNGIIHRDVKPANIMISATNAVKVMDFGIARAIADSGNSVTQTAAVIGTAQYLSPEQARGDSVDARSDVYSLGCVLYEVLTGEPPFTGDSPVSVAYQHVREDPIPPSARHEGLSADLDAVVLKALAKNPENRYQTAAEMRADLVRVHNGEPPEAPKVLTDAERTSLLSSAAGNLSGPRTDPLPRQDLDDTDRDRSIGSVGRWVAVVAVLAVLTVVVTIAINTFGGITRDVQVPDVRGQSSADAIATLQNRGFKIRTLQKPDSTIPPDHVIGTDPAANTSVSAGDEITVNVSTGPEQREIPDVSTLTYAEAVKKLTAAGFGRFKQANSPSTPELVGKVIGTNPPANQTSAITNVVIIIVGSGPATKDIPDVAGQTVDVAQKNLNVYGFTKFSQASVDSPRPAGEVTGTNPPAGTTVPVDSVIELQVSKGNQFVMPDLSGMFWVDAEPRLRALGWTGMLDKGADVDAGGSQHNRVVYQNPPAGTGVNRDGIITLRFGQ
Description: Binding affinity to Mycobacterium tuberculosis PknB assessed as thermal stability by measuring melting temperature at 100 uM incubated for 0.5 hrs by SYPRO orange dye based differential scanning fluorimetry analysis (reference value: 59 degreeC).

Data set [9] in a line: Cmax in Sprague-Dawley rat at 5 mg/kg, iv measured for 24 hrs by LC-MS analysis. Also on record: time 24 hrs, dose 5 mg/kg, route iv. In kind it is ADME, organism-based. Particulars: in vivo.
The test system of data set [10] is Mycobacterium tuberculosis. Nature of the data set: Antibacterial activity against Mycobacterium tuberculosis H37Rv assessed as inhibition of bacterial growth incubated for 6 days by microplate alamar blue assay. Format: functional. Particulars: 144 h, time 6 day.
Data set [11] is described as follows: Toxicity in BALB/c mouse assessed as histopathological changes in kidney at 800 mg/kg, po measured at 14 days by H and E staining based analysis. In kind it is organism-based. The conditions noted are these: in vivo, 336 h, time 14 day.
The next data set relates to Escherichia coli. Description: Antibacterial activity against Escherichia coli assessed as inhibition of bacterial growth. In kind it is functional.
The subject of data set [12] is Mycobacterium tuberculosis. Nature of the data set: Antibacterial activity against Mycobacterium tuberculosis clinical isolate K5 assessed as inhibition of bacterial growth incubated for 6 days by microplate alamar blue assay. In kind it is functional. The conditions noted are these: K5, 144 h, time 6 day.
Data set [13] relates to Mycobacterium tuberculosis. Nature of the data set: Antibacterial activity against Mycobacterium tuberculosis clinical isolate K12 assessed as inhibition of bacterial growth incubated for 6 days by microplate alamar blue assay. In kind it is functional. The conditions noted are these: K12, 144 h, time 6 day.
Data set [14] deals with Mycobacterium tuberculosis. Description: Antibacterial activity against Mycobacterium tuberculosis clinical isolate K4 assessed as inhibition of bacterial growth incubated for 6 days by microplate alamar blue assay. Format: functional. The conditions noted are these: K4, 144 h, time 6 day.
A short description of data set [15]: AUC(0 to t) in Sprague-Dawley rat at 5 mg/kg, iv measured for 24 hrs by LC-MS analysis. In kind it is ADME, organism-based. Further details: dose 5 mg/kg, time 24 hrs, route iv. Particulars: in vivo.
Data set [16] has as its system Mycolicibacterium smegmatis. Description: Antibacterial activity against Mycobacterium smegmatis assessed as inhibition of bacterial growth. Format: functional.
Data set [17] can be described thus: Toxicity in BALB/c mouse assessed as mouse death at 800 mg/kg, po measured for 2 weeks. In kind it is organism-based. The conditions noted are these: in vivo, 336 h.
Data set [18] concerns Mycobacteroides abscessus. Description: Antibacterial activity against Mycobacterium abscessus assessed as inhibition of bacterial growth. In kind it is functional.
Data set [19] is described as follows: Toxicity in BALB/c mouse assessed as body weight loss at 800 mg/kg, po measured for 2 weeks. Format: organism-based. Particulars: in vivo, 336 h.
Data set [20] has as its target T1, Serine/threonine-protein kinase PknB (Mycobacterium tuberculosis). Description: Binding affinity to Mycobacterium tuberculosis PknB assessed as gibbs free energy at 600 uM by ITC analysis.
Data set [21] in a line: AUC(0 to t) in Sprague-Dawley rat at 15 mg/kg, po measured for 24 hrs by LC-MS analysis. Format: ADME, organism-based. Also on record: dose 15 mg/kg, time 24 hrs, route po. The conditions noted are these: in vivo.
The nature of data set [22]: Cmax in Sprague-Dawley rat at 15 mg/kg, po measured for 24 hrs by LC-MS analysis. Further details: dose 15 mg/kg, time 24 hrs, route po. Format: ADME, organism-based. Particulars: in vivo.
Data set [23] in a line: Tmax in Sprague-Dawley rat at 15 mg/kg, po measured for 24 hrs by LC-MS analysis. In kind it is ADME, organism-based. The conditions noted are these: in vivo.
Data set [24] in a line: Apparent clearance during terminal phase in Sprague-Dawley rat at 5 mg/kg, iv measured for 24 hrs by LC-MS analysis. Format: ADME, organism-based. The conditions noted are these: in vivo.
The target in data set [25] is T2, Dihydrofolate reductase (Mycobacterium tuberculosis) (UniProt P9WNX1).
T2 sequence (whole entry): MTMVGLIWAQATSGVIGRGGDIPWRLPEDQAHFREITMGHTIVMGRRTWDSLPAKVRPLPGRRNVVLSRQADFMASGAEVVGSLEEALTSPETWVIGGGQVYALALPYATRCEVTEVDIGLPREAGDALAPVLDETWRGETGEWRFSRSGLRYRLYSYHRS
Nature of the data set: Inhibition of Mycobacterium tuberculosis DHFR at 10 uM relative to control.

Data set [26] can be described thus: Toxicity in BALB/c mouse assessed as reduction in ALP level at 800 mg/kg, po measured at 14 days. In kind it is organism-based. Particulars: in vivo, 336 h, time 14 day.
For data set [27], the target named is T3, Serine/threonine-protein kinase PknB (Mycobacterium tuberculosis, UniProt P9WI81).
T3 sequence (P9WI81 whole entry): T1 sequence (whole entry)
Nature of the data set: Binding affinity to Mycobacterium tuberculosis PknB assessed as dissociation constant at 600 uM by ITC analysis.

Data set [28] has as its target T2, Dihydrofolate reductase (Mycobacterium tuberculosis). Nature of the data set: Inhibition of Mycobacterium tuberculosis DHFR at 100 uM relative to control.
The target in data set [29] is T1, Serine/threonine-protein kinase PknB (Mycobacterium tuberculosis). Description: Binding affinity to Mycobacterium tuberculosis PknB assessed as thermal stability by measuring change in melting temperature at 100 uM incubated for 0.5 hrs by SYPRO orange dye based differential scanning fluorimetry analysis.
For data set [30], the system named is Mycobacterium tuberculosis. Nature of the data set: Antibacterial activity against Mycobacterium tuberculosis clinical isolate K16 assessed as inhibition of bacterial growth incubated for 6 days by microplate alamar blue assay. Format: functional. Particulars: K16, 144 h, time 6 day.
Data set [31] concerns Mycobacterium tuberculosis. Nature of the data set: Antitubercular activity against marker free autoluminescent Mycobacterium tuberculosis H37Ra assessed as reduction in relative light unit measured once a day for 6 days. The conditions noted are these: 144 h, time 6 day. In kind it is functional.
Data set [32] is described as follows: Toxicity in BALB/c mouse assessed as mouse death at 300 mg/kg, po measured after 6 days. Particulars: in vivo, 144 h, time 6 day. Format: organism-based.

Turning to `Cc1cc(Nc2nc(-c3ccccc3)ncc2Cl)c(OC(C)C)cc1C1CCNCC1`, the Activity result in [1] was “Toxic”; in [2], 0.5 log10RLU; in data set [4], “Toxic”; in [7], “Toxic”; in data set [11] it was “Toxic”; in [17], “Non-Toxic”. Also, the Activity result was “Non-Toxic” in data set [19] and “Toxic” in data set [26]. Moreover, the IC50 at 48 h in data set [3] came to 3.1 µM. The compound also had a half-life in data set [5] of 26.2 h. This compound also gave a bioavailability in data set [6] of 40.7%. Also, the minimal inhibitory concentration (MIC) in the data set with Staphylococcus aureus was 4 µg/mL (≈ 9.15 µM); in [10] it was 0.5 µg/mL (≈ 1.14 µM); in the data set with Escherichia coli, above 16 µg/mL; in data set [12], 1 µg/mL (≈ 2.29 µM); in data set [13], 0.5 µg/mL (≈ 1.14 µM); in data set [14] it was 0.5 µg/mL (≈ 1.14 µM). The MIC in data set [16] turned out to be 4 µg/mL (≈ 9.15 µM); in [18], 4 µg/mL (≈ 9.15 µM); in data set [30], 1 µg/mL (≈ 2.29 µM); in data set [31], 0.5 µg/mL (≈ 1.14 µM). In data set [8], the Tm amounted to 54 °C. In addition, the values for the Cmax in data set [9] and in [22] were 595 ng/mL and 108 ng/mL, respectively. Moreover, the results for the AUC(0-t) at 24 h in data set [15] and in [21] were 1690 ng·h/mL and 2080 ng·h/mL, respectively. Also, the deltaG in data set [20] is -3.1 kcal/mol. The Tmax in [23] is above 24 h. In data set [24], the CLz/F turned out to be 25 mL/min/kg. In addition, the inhibition in data set [25] was 4.5%; in data set [28] it was 7.1%. Further, the Kd in [27] worked out at 9.4 µM. For the same compound, the ΔTm in data set [29] is -5 °C.
As to `Cc1cc(Nc2nc(Nc3ccc(F)cc3)ncc2Cl)c(OC(C)C)cc1C1CCNCC1`, in data set [3], the IC50 at 48 h came out at 2.2 µM. Also, the MIC was 4 µg/mL (≈ 8.51 µM) in the data set on Staphylococcus aureus; 1 µg/mL (≈ 2.13 µM) in [10]; above 16 µg/mL with Escherichia coli; 2 µg/mL (≈ 4.26 µM) in [12]; 1 µg/mL (≈ 2.13 µM) in data set [13]; 1 µg/mL (≈ 2.13 µM) in [14]. Further, the MIC in data set [16] amounted to 4 µg/mL (≈ 8.51 µM); in [18], 8 µg/mL (≈ 17 µM); in [30], 2 µg/mL (≈ 4.26 µM); in data set [31], 0.5 µg/mL (≈ 1.06 µM). For the same compound, in data set [32], the Activity entry is listed as “Toxic”. Besides, the inhibition was determined as 2.8% in data set [25] and 3.5% in data set [28].
Compound `Cc1cc(Nc2ncc(Cl)c(Nc3cccc4ccccc34)n2)c(OC(C)C)cc1C1CCNCC1` had a bioavailability in data set [6] of 17.5%. For the same compound, the MIC was 8 µg/mL (≈ 15.9 µM) in the data set on Staphylococcus aureus, above 16 µg/mL with Escherichia coli, 16 µg/mL (≈ 31.9 µM) in data set [16] and 16 µg/mL (≈ 31.9 µM) in [18]. Besides, the inhibition in [25] was 3.1%; in data set [28] it was 4.4%.
